In ChEMBL document CHEMBL1150180, “Studies on Cytotoxic Constituents in Pericarps of Mallotus japonicus, V. Three New Phloroglucinol Derivatives, Butyrylmallotochromanol, Isobutyrylmallotochromanol, and Mallotojaponol” (1990):
Values after ≈ are worked out from the molar mass of the structure shown.

test system: KB; assay: Cytotoxicity against human KB cells; assay type: functional; conditions: read-out: ED50 (the source's name)

| SMILES | EC50 |
| --- | --- |
| COc1c(C)c(OC(C)=O)c(C(C)=O)c(OC(C)=O)c1Cc1c(OC(C)=O)c2c(c(C(=O)C(C)C)c1OC(C)=O)OC(C)(C)C(OC(C)=O)C2 (configuration not stated) | 4.5 µg/mL (≈ 6.44 µM) |
| COc1c(C)c(O)c(C(C)=O)c(O)c1Cc1c(O)c2c(c(C(=O)C(C)C)c1O)OC(C)(C)C(O)C2 (configuration not stated) [ISOBUTYRYLMALLOTOCHROMANOL] | 14.6 µg/mL (≈ 29.9 µM) |
| CCCC(=O)c1c(OC(C)=O)c(Cc2c(OC)c(C)c(OC(C)=O)c(C(C)=O)c2OC(C)=O)c(OC(C)=O)c2c1OC(C)(C)C(OC(C)=O)C2 (configuration not stated) | 2.8 µg/mL (≈ 4.01 µM) |
| CCCC(=O)c1c(O)c(Cc2c(O)c(C(C)=O)c(O)c(C)c2OC)c(O)c2c1OC(C)(C)C(O)C2 (configuration not stated) [BUTYRYLMALLOTOCHROMANOL] | 13.5 µg/mL (≈ 27.6 µM) |
| COc1c(C)c(O)c(C(C)=O)c(O)c1Cc1c(O)c2c(c(C(C)=O)c1O)OC(C)(C)C(O)C2 (configuration not stated) [MALLOTOCHROMANOL] | 21 µg/mL (≈ 45.6 µM) |
| COc1c(C)c(OC(C)=O)c(C(C)=O)c(OC(C)=O)c1Cc1c(OC(C)=O)c(CC(OC(C)=O)C(C)(C)OC(C)=O)c(OC(C)=O)c(C(C)=O)c1OC(C)=O (configuration not stated) | 22.5 µg/mL (≈ 29.1 µM) |
| COc1c(C)c(O)c(C(C)=O)c(O)c1Cc1c(O)c(CC(O)C(C)(C)O)c(O)c(C(C)=O)c1O (configuration not stated) [MALLOTOJAPONOL] | 22 µg/mL (≈ 46 µM) |
